Assays:
Test in all cases: relative viability (nuclei count vs DMSO), 5 days (fraction); higher = more cells survive
[1] = compound: CS(=O)(=O)c1ccc(C(=O)Nc2ccc(Cl)c(-c3ccccn3)c2)c(Cl)c1 [Vismodegib] + C[C@@H](Oc1cc(-c2cnn(C3CCNCC3)c2)cnc1N)c1c(Cl)ccc(F)c1Cl [Crizotinib] (partner 1 µM)
Outline: (§1)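 Lung cancer cell lines, seeded in 1536-well plates, were treated the following day by pin tool with a single drug or with five library-drug doses (not always all listed) in √10 steps on top of a fixed anchor-drug dose. Cells were fixed and nuclei stained in one step after 5 days, and nuclei were counted. Relative viability is the nuclei count for treated wells divided by that for vehicle wells, reported as medians of duplicate plates.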

[2] = compound: N#CC[C@H](C1CCCC1)n1cc(-c2ncnc3[nH]ccc23)cn1 [Ruxolitinib] + Nc1nc2[nH]cc(CCc3ccc(C(=O)N[C@@H](CCC(=O)O)C(=O)O)cc3)c2c(=O)[nH]1 [Pemetrexed] (partner 0.2 µM)
Outline: as §1

[3] = compound: N#CC[C@H](C1CCCC1)n1cc(-c2ncnc3[nH]ccc23)cn1 [Ruxolitinib] + C[C@@H](Oc1cc(-c2cnn(C3CCNCC3)c2)cnc1N)c1c(Cl)ccc(F)c1Cl [Crizotinib] (partner 1 µM)
Outline: as §1

[4] = compound: N#CC[C@H](C1CCCC1)n1cc(-c2ncnc3[nH]ccc23)cn1 [Ruxolitinib] + CCNC(=O)c1noc(-c2cc(C(C)C)c(O)cc2O)c1-c1ccc(CN2CCOCC2)cc1 [Luminespib] (partner 0.01 µM)
Outline: as §1

Cell Line | relative viability ([1]; first compound 0.08 µM) | relative viability ([1]; first compound 0.253 µM) | relative viability ([1]; first compound 0.8 µM) | relative viability ([1]; first compound 2.53 µM) | relative viability ([1]; first compound 8 µM) | relative viability ([2]; first compound 0.08 µM) | relative viability ([2]; first compound 0.253 µM) | relative viability ([2]; first compound 0.8 µM) | relative viability ([2]; first compound 2.53 µM) | relative viability ([2]; first compound 8 µM) | relative viability ([3]; first compound 0.08 µM) | relative viability ([3]; first compound 0.253 µM) | relative viability ([3]; first compound 0.8 µM) | relative viability ([3]; first compound 8 µM) | relative viability ([4]; first compound 0.08 µM) | relative viability ([4]; first compound 0.253 µM) | relative viability ([4]; first compound 0.8 µM) | relative viability ([4]; first compound 2.53 µM) | relative viability ([4]; first compound 8 µM) | relative viability ([3]; first compound 2.53 µM)
NCI-H661 | 0.961 | 0.94 | 1.05 | 0.93 | 1.01 | 0.925 | 0.959 | 0.939 | 1 | 0.809 | 0.941 | 1.02 | 0.941 | 0.841 | 0.892 | 1.01 | 0.93 | 0.94 | 0.768 | 
NCI-H838 | 0.816 | 0.787 | 0.885 | 0.821 | 0.848 | 0.259 | 0.246 | 0.266 | 0.227 | 0.204 | 0.751 | 0.723 | 0.682 | 0.342 | 0.218 | 0.233 | 0.316 | 0.239 | 0.221 | 0.591
NCI-H1355 | 1.04 | 0.995 | 1.02 | 1.07 | 1.09 | 1.1 | 0.977 | 1.09 | 1.02 | 1.01 | 1.08 | 1.01 | 1.06 | 0.907 | 0.751 | 0.721 | 0.772 | 0.616 | 0.687 | 0.839
NCI-H1437 | 0.876 | 0.912 | 0.902 | 0.934 | 0.931 | 0.469 | 0.292 | 0.304 | 0.319 | 0.254 | 0.924 | 1.08 | 0.872 | 0.778 | 1.16 | 1.26 | 1.2 | 1.13 | 0.908 | 0.795
NCI-H1563 | 0.914 | 0.801 | 0.888 | 0.814 | 0.969 | 0.724 | 0.744 | 0.892 | 0.774 | 0.544 | 0.865 | 0.84 | 0.931 | 0.838 | 0.535 | 0.515 | 0.549 | 0.505 | 0.505 | 0.704
NCI-H1650 | 0.884 | 0.904 | 0.97 | 0.932 | 0.918 | 0.311 | 0.43 | 0.351 | 0.333 | 0.346 |  | 0.9 | 1.11 | 0.848 |  | 0.196 | 0.198 | 0.214 | 0.197 | 0.83
NCI-H1651 | 0.776 | 0.851 | 0.871 | 0.825 | 0.829 | 0.578 | 0.597 | 0.593 | 0.599 | 0.643 | 0.8 | 0.893 | 0.847 | 0.842 | 0.883 | 0.902 | 0.979 | 0.73 | 0.726 | 0.779
NCI-H1666 | 0.917 | 0.849 | 1.06 | 1 | 0.948 | 1.01 | 0.814 | 0.988 | 0.786 | 0.887 | 1.03 | 0.974 | 0.986 | 0.909 | 1 | 1.1 | 1.05 | 1.01 | 0.972 | 0.878

Source: the supplement of paper PMC10307832
